Test results reported in PMC6591174, “The beneficial androgenic action of steroidal aromatase inactivators in estrogen-dependent breast cancer after failure of nonsteroidal drugs” (Cell Death & Disease, 2019).
Entries after “also recorded” stand apart in the source; their conditions may differ.

How the values were obtained:
ZR-75-1 cells = assay: Cell proliferation assay (CCK8), ZR-75-1; type: cell-based, human; conditions: for proliferation of ZR-75-1 cells: 1 nM-10 μM, 6 days, 10% PRF-CT with 1 nM E2
Procedure: (§1) Fig. 2 Proliferative response of cancer cells to indicated compounds. a–c the effect of concentrations of different compounds on the growth of the cells. […] Cell growth was measured as described in the “Materials and methods”. The proliferation of cells is expressed as the ratio of the cells compared with the control wells (untreated cells). d, e Influence of different compounds on the cell cycle of MCF-7 cells. MCF-7 cells were cultured in 10% PRF-CT with E2 (1 nM) for 3 days before plating. Cells were seeded in six-well plates and, the next day, starved in PRF for 24 h. Cells were exposed to different compounds at a concentration of 100 nM for 72 h, and then subjected to cell-cycle analysis as described in “Materials and methods”. f MCF-7 cells on poly-L-lysine-coated glass coverslips were exposed to compounds (100 nM) in 10% PRF-CT with 1 nM E2 for 72 h. Control cells were treated with vehicle. DAPI stains DNA, and the secondary anti-mouse antibody to detect the antibody bound to Ki-67 is labeled with the cyanine dye Cy3. The cells were stained with DAPI (blue). Immunofluorescence staining of Ki-67 of cells was observed using fluorescence microscope. Red: Ki-67; blue: nucleus.Typical image is shown. Scale bars: 10 μm. Data represent a mean ± SEM of three independent experiments, each in triplicate; bars, SEM. *P ≤ 0.05 vs. control
(§2) After 24 h, cells were exposed for 3–6 days to various concentrations of compounds (1 nM– 10 μM) or left untreated. The incubation time and the compounds concentrations were chosen based on previous studies[17],[32]–[34]. The effects of the various drugs on cell proliferation at the indicated concentrations (1 nM– 10 μM) were determined by using a CCK8 kit (Dojindo Laboratories, Kumamoto, Japan) according to the manufacturer’s protocol. The absorbance at 450 nm was measured by using a Versamax microplate reader (Thermo Varioskan Flash, USA). Cell growth is expressed as the ratio of the cells compared with the control wells (untreated cells).

MCF-7 cells [1] = assay: Cell proliferation assay (CCK8), MCF-7; type: cell-based, human; conditions: for proliferation of MCF-7 cells: 1 nM-10 μM, 6 days, 10% PRF-CT with 1 nM E2
Procedure: as §1, §2

MCF-7 cells [2] = assay: Cell cycle analysis by flow cytometry; type: cell-based, human; conditions: 100 nM, 72 h
Procedure: Fig. 2 Proliferative response of cancer cells to indicated compounds. a–c the effect of concentrations of different compounds on the growth of the cells. Cells were cultured in 10% PRF-CT with E2 1 nM (MCF-7 and ZR-75-1) or without E2 (MDA-MB-231) for 3 days before plating. Cells were seeded in 96-well plates and 24 h later they were exposed to different concentrations (1 nM– 10 μM) of compounds for 6 days (MCF-7 and ZR-75-1) or 3 days (MDA-MB-231). Cell growth was measured as described in the “Materials and methods”. The proliferation of cells is expressed as the ratio of the cells compared with the control wells (untreated cells). d, e Influence of different compounds on the cell cycle of MCF-7 cells. MCF-7 cells were cultured in 10% PRF-CT with E2 (1 nM) for 3 days before plating. Cells were seeded in six-well plates and, the next day, starved in PRF for 24 h. Cells were exposed to different compounds at a concentration of 100 nM for 72 h, and then subjected to cell-cycle analysis as described in “Materials and methods”. f MCF-7 cells on poly-L-lysine-coated glass coverslips were exposed to compounds (100 nM) in 10% PRF-CT with 1 nM E2 for 72 h. Control cells were treated with vehicle. DAPI stains DNA, and the secondary anti-mouse antibody to detect the antibody bound to Ki-67 is labeled with the cyanine dye Cy3. The cells were stained with DAPI (blue). Immunofluorescence staining of Ki-67 of cells was observed using fluorescence microscope. Red: Ki-67; blue: nucleus.Typical image is shown. Scale bars: 10 μm. Data represent a mean ± SEM of three independent experiments, each in triplicate; bars, SEM. *P ≤ 0.05 vs. control
Cell cycle kinetics were studied by flow cytometry. MCF-7 cells were cultured in 10% PRF–CT with 1 nM E2 for 3 days prior to seeding on six-well plates (10^5 cells/well). Following seeding of cells, cells were serum starved for 24 h, and then treated with media containing 100 nM of the test compounds for 72 h. Cell-cycle analysis was performed as described by Ando[20].

[3] = test system: prostate (P), seminal vesicle (SV), levator ani muscle (LA); assay: Hershberger assay in orchiectomized rats; type: in vivo, Wistar male rats; conditions: for androgenic effect (P and SVs): 10 mg/kg s.c. once a day
Procedure: Fig. 5 Estimation of the androgenic and myotrophic activities of the indicated compounds obtained by the Hershberger Assay. Wistar male rats were orchiectomized (orchi) or sham-operated (intact) under ether anesthesia. After 14 days of endogenous hormonal decline, animals were randomly allocated to treatment and vehicle groups (n = 6). The numbers at the end of the abbreviations correspond to the dose in mg/kg body weight of the animal. Flutamide was given by gavage (10 mg/kg/day). […] Then the animals were treated once a day. The rats were sacrificed after completion of the 12-day treatment. Following removal, wet weights of the prostate (P), seminal vesicle (SV), levator ani muscle (LA) were determined. a Size and shape of P, SV and LA at the end of the treatment period. b, c, and d, influence of treatment with the compounds alone or together with the antiandrogen flutamide at the indicated doses on the weight of the organs (P, SV and LA) of the castrated animals. The mean wet weight is represented by the bars in the graphs. Values are means ± SEM; bars, SEM. *P ≤ 0.05, **P ≤ 0.01 vs. control
The Hershberger assay was performed according to the guidelines of the rodent Hershberger assay. Male Wistar rats (140 g, 5–6 weeks) were orchiectomized (orchi) or sham-operated (intact) under ether anesthesia. After 14 days of endogenous hormonal decline, animals were randomly allocated to treatment and vehicle groups (n = 6); orchi group = orchi rats receiving sham injections; intact group = sham-operated rats receiving sham injections; treatment group = orchi rats receiving drugs injections by subcutaneous. The antiandrogen flutamide given by gavage (10 mg/kg/day). Drugs were dissolved in ethanol and diluted in corn oil. The animals were treated once a day. Rats were sacrificed after completion of the 12-day treatment. Following removal, the wet weights of the P, SV, and LA muscle were determined. The data of tissue weights are presented as mean ± SEM.

[4] = test system: ER(+) breast cancer (luminal A tumors); parameters: method as in printed; conditions: daily topical application to the affected breast, within 40 days; earlier work of the authors, ref not given; cited from earlier work
[5] = target: T1, Rat AR ligand-binding domains (His-GST-ARLBD) (Rattus norvegicus, UniProt P15207); assay: AR fluorescence polarization-based competitive hormone-binding assay (PolarScreen AR Competitor Assay, Red)
T1 construct: purchased Invitrogen
T1 sequence (P15207 651-882 limits assumed): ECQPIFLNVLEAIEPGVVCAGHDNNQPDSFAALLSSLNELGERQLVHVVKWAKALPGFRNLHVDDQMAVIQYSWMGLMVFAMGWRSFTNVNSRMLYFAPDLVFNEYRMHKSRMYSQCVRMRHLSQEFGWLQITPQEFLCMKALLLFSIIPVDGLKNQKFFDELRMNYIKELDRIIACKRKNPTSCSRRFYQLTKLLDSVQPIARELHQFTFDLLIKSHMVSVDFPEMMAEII
Description: Fig. 4 The affinity of indicated compounds to the AR and their regulation of AR transcriptional activity. a AR fluorescence polarization-based competitive hormone-binding assays. […] Curve fitting was done using GraphPad Prism software (version 7.00). […] ARE(3×)-regulated dual-luciferase activity in U2-OS cells under steroid-free conditions. Cells were transiently transfected with pcDNA3.1-AR and ARE3-luc2P (firefly luciferase reporter plasmids) and the internal normalization control pRL-TK (Renilla luciferase reporter plasmid). Six hours after transfection, cells were treated as indicated. Then they were assayed 48 h after transfection for dual-luciferase activity. […] Briefly, compounds were dissolved in DMSO and mixed at 2% (vol/vol) with AR Red Screening Buffer. The tested compounds were subsequently serially diluted in two-fold increments with AR Red Screening Buffer and mixed 1:1 (vol/vol) with a 2 × AR/Fluormone AL complex. Competition for binding AR between Fluormone AL and the tested compounds was allowed to come to equilibrium for 4 h and not more than 20 h at room temperature in the dark. Fluorescence polarization value (mP) was measured on a fluorescence polarization plate reader (Biotech cytation5). Each compound dose was performed in triplicate, relative error was calculated from the standard error of the mean (SEM), and curve fitting was performed using GraphPad Prism™ 7.0 software.

androgenic organs = test system: androgenic organs; parameters: method as in PMID 404132; conditions: doses of 3 and 10 mg/kg; cited from earlier work
[6] = test system: AR protein in MCF-7 cells; assay: AR protein expression by western blot and immunofluorescence; type: cell-based, human; conditions: incubation 3 days
Procedure: Fig. 3 Influence of indicated compounds on the expression of the AR. […] AR protein expression was analyzed by western blot as described in “Materials and methods”. b The densitometric evaluation of the bands is calculated by ImageJ. The numbers represent the densitometric value relative to untreated control. […] Typical image is shown. Scale bars: 10 μm
Total cell proteins were obtained from 70% confluent cell cultures. Protein extracts of whole cells (50 μg) were denatured, separated by SDS–PAGE and transferred to polyvinylidene fluoride membranes. After blocking with 3% bovine serum albumin in Tris-buffered saline-Tween, membranes were probed overnight at 4 °C. […] After incubation with the appropriate secondary antibody, results were detected using ECL detection reagents. Immunoreactive bands were quantified by densitometry using ImageJ software.
MCF-7 cells were seeded on 24-well plates (2 × 10^4 cells/well) with a poly-L-lysine-coated glass coverslip per well in 10% PRF–CT. […] Cells were visualized with a ×40 objective and a Qimaging digital camera coupled to an Olympus X71 fluorescence microscope using a red fluorescent protein filter.

[7] = 100 nM compound with 100 nM OH-Flutamide

CC(C)(O)C(=O)Nc1ccc([N+](=O)[O-])c(C(F)(F)F)c1 [OH-Flutamide, hydroxyflutamide]
antiproliferative effect in presence of OH-Flutamide, ZR-75-1 (ZR-75-1 cells; [7]): the antiproliferative effect of DHT is almost completely abolished
antiproliferative effect in presence of OH-Flutamide, MCF-7 (MCF-7 cells [1]; [7]): the antiproliferative effect of DHT is almost completely abolished

C[C@]12CCC(=O)C(O)=C1CC[C@@H]1[C@@H]2CC[C@]2(C)C(=O)CC[C@@H]12 [4-OHA, 4-hydroxyandrostenedione]
proliferation of ZR-75-1 cells (ZR-75-1 cells): no effect on the growth
influence on the cell cycle (G1/G0 increase, S-phase decrease) (MCF-7 cells [2]): apparently more effective than Exemestane and 17-HEXE
androgenic effect (P and SVs) ([3]; 12 days, castrated rats): no effect on P and SVs
androgenic effect (P and SVs) ([3]; 12 days, castrated rats, listed as Formestane): no effect on androgenic organs whatsoever
reduction of tumor size (regression) [4]: more than 50%
proliferation of MCF-7 cells (MCF-7 cells [1]): some antiproliferative action

C[C@@H]1CC2=CC(=O)CC[C@@H]2[C@H]2CC[C@@]3(C)[C@@H](CC[C@]3(C)O)[C@@H]21 [Mibolerone]
proliferation of ZR-75-1 cells (ZR-75-1 cells): antiproliferative in two ER(+)/AR(+) cell lines at all concentrations
effect on P, SVs and LA compared with DHT ([3]; 0.5 mg/kg s.c. once a day, 12 days, castrated rats): more effective than DHT
proliferation of MCF-7 cells (MCF-7 cells [1]): antiproliferative in two ER(+)/AR(+) cell lines at all concentrations
IC50 [5]: 11.8 nM

CC(C)C(=O)Nc1ccc([N+](=O)[O-])c(C(F)(F)F)c1 [Flutamide, flutamide]
prevention of androgenic effects of the test compounds ([3]; Flutamide by gavage 10 mg/kg/day, concomitant): All androgenic effects can be eliminated

C=C1C[C@@H]2[C@H](CC[C@]3(C)C(=O)CC[C@@H]23)[C@@]2(C)C=CC(=O)C=C12 [Exemestane]
proliferation of ZR-75-1 cells (ZR-75-1 cells): less effective
androgenic activity (androgenic organs): slight androgenic activity
androgenic effect (P and SVs) ([3]; 12 days, castrated rats): slightly androgenic; also recorded: the same effect
proliferation of MCF-7 cells (MCF-7 cells [1]): less effective
expression of the AR protein [6]: considerably more effective than Formestane
